According to patent US5977130A, “Intimal hypertrophy inhibitors” (Taiho Pharmeutical Co., Ltd., priority 1996, dated 1999):
Counter-ions that a name gives are not always drawn.

Tested on: intimal hypertrophy
Assay: Intimal Hypertrophy Inhibiting Activity in Rats, test (2): balloon denudation of left carotid artery
Format: in vivo, male S.D. rats
Settings: Dose 30 mg/kg, oral once a day, 14 days after denudation
Description: (§1) Pharmacological Test (Intimal Hypertrophy Inhibiting Activity in Rats)
(§2) By use of various compounds which serve as active ingredients of the present invention, the following tests (1) and (2) were performed in accordance with the method described in Journal of Clinical Investigation,85 (1990) 2004.
Groups of 13- to 14-week-old male S.D. rats were used. A 2F balloon catheter was inserted in each rat under etherification through the right iliac artery to the left carotid artery. While the balloon was inflated, the endothelium of the left caroid artery was denuded. Subsequently, the balloon catheter was removed, and an antibiotic was added dropwise into the abdominal cavity, followed by saturing. Each drug was suspended in 0.5% methylcellulose, and a dose of 10 ml/kg was orally administered once a day, starting from 2 hours after denudation. To the controls were administered 0.5% methylcellulose.
The rats were sacrificed 14 days after denudation The left carotid artery was removed and fixed, through perfusion, with 10% buffered formalin. Each sample was divided into six segments and the segments were processed by a customary method to thereby prepare paraffin sections. Six specimens of the sections from each rat were stained with hematoxylin-eosin. The area of the neoplastic intima and that of the media were measured, and assessment was performed in terms of percentage of intimal hypertrophy inhibition as determined from the intima/media area ratios, using as standards the data from the groups to which drugs had not been administered.

**Q.** For `Nc1ccc(C(=C2C(=O)Nc3ccccc32)c2ccc(N)cc2)cc1` [Compound 33, 3-[bis(4-aminophenyl)methylene]-oxindole], which “Inhibition (%) of intimal hypertrophy (intima/media area ratio)” value (from here on “Inhibition (%) … (intima/media area ratio)”) is on record?
**A.** Its value is 32.7%.

**Q.** Which “Inhibition (%) … (intima/media area ratio)” value does the source give for `O=C1Nc2ccccc2C1=C(c1ccccn1)c1ccccn1` [Compound 35, 3-(di-2-pyridylmethylene)-oxindole] here?
**A.** The value was 36.8%.

**Q.** Which “Inhibition (%) … (intima/media area ratio)” value does the source give for `O=C1Nc2ccccc2C1=Cc1ccccn1` [Compound 38] here?
**A.** Its value is 42.0%.

Tested on: intimal hypertrophy
Assay: Intimal Hypertrophy Inhibiting Activity in Rats, test (1): balloon denudation of thoracic aorta
Format: in vivo, male S.D. rats
Settings: Rattus norvegicus, 336 h, Dose 30 mg/kg, oral once a day, 14 days after denudation, read-out: Inhibition (%) of intimal hypertrophy (intima/media thickness ratio)
Description: as §1, §2
Groups of 14- to 15-week-old male S.D. rats were used. A 3F balloon catheter was inserted in each rat, under etherification, through the right iliac artery to the aorta. While the balloon was inflated, the endothelium of the thoracic aorta was denuded. Subsequently, the balloon catheter was removed, and an antibiotic was added dropwise into the abdominal cavity, followed by saturing. Each drug was suspended in 0.5% methylcellulose, and a dose of 10 ml/kg was orally administered once a day, starting from 2 hours after denudation. To the controls were administered 0.5% methylcellulose.
The rats were sacrificed 14 days after denudation. The thoracic aorta was removed and fixed with 10% neutrally-buffered formalin. Six segments cut out from the lower part of each sample were processed by a customary method to thereby prepare paraffin sections. Six specimens of the sections from each rat were stained with hematoxylin-eosin. The thickness of the neoplastic intima at the site of maximal hypertrophy and that of the media at the same site were measured, and the ratio of intimal thickness to media thickness was calculated. Assessment was performed in terms of percentage of intimal hypertrophy inhibition as determined from the intima/media thickness ratios, using as standards the data from the groups to which drugs had not been administered.
The following four different compounds (a)-(d) were used as comparative compounds: […]

**Q.** For `COc1ccc(C(=C2C(=O)Nc3ccccc32)c2ccc(OC)cc2)cc1` [Compound 1, 3-[bis(4-methoxyphenyl)methylene]-oxindole], which inhibition in vivo at 30 mg/kg is on record?
**A.** The inhibition in vivo at 30 mg/kg was 33.2%.

**Q.** Which inhibition in vivo at 30 mg/kg does the source give for `Cc1ccc(C(=C2C(=O)Nc3ccccc32)c2ccc(C)cc2)cc1` [Compound 2] here?
**A.** Its inhibition in vivo at 30 mg/kg is 36.5%.

**Q.** With `O=C1Nc2ccccc2C1=C(c1ccc(O)cc1)c1ccc(O)cc1` [Compound 5] as the compound, how does the inhibition in vivo at 30 mg/kg read?
**A.** The inhibition in vivo at 30 mg/kg was 14.8%.

**Q.** For `CN(C)CCOc1ccc(C(=C2C(=O)Nc3ccccc32)c2ccc(OCCN(C)C)cc2)cc1` [Compound 6], which inhibition in vivo at 30 mg/kg is on record?
**A.** Its inhibition in vivo at 30 mg/kg is 14.7%.

**Q.** With `O=C1Nc2ccccc2C1=C(c1ccccc1)c1ccccc1` [Compound 7] as the compound, how does the inhibition in vivo at 30 mg/kg read?
**A.** Its inhibition in vivo at 30 mg/kg is 34.2%.

**Q.** Which inhibition in vivo at 30 mg/kg does the source give for `COc1ccc(C(=C2C(=O)Nc3cccnc32)c2ccc(OC)cc2)cc1` [Compound 8] here?
**A.** The inhibition in vivo at 30 mg/kg was 28.9%.

**Q.** For `CCOC(=O)c1ccc2c(c1)C(=C(c1ccc(C)cc1)c1ccc(C)cc1)C(=O)N2` [Compound 9], which inhibition in vivo at 30 mg/kg is on record?
**A.** The inhibition in vivo at 30 mg/kg was 26.6%.

**Q.** With `COc1ccc(C(=C2C(=O)Nc3ccc(N(C)C)cc32)c2ccc(OC)cc2)cc1` [Compound 10] as the compound, how does the inhibition in vivo at 30 mg/kg read?
**A.** The inhibition in vivo at 30 mg/kg was 14.8%.

**Q.** Which inhibition in vivo at 30 mg/kg does the source give for `Cc1ccc(C(=C2C(=O)Nc3cc(N)ccc32)c2ccc(C)cc2)cc1` [Compound 13] here?
**A.** The inhibition in vivo at 30 mg/kg was 10.9%.

**Q.** For `COc1ccc(C(=C2C(=O)N(CCN(C)C)c3ccccc32)c2ccc(OC)cc2)cc1` [Compound 16, 1-dimethylaminoethyl-3-[bis(4-methoxyphenyl)methylene]oxindole.HCl], which inhibition in vivo at 30 mg/kg is on record?
**A.** The inhibition in vivo at 30 mg/kg was 21.1%.

**Q.** With `COc1ccc(C(=C2C(=O)N(C)c3ccccc32)c2ccc(OC)cc2)cc1` [Compound 17] as the compound, how does the inhibition in vivo at 30 mg/kg read?
**A.** Its inhibition in vivo at 30 mg/kg is 20.9%.

**Q.** With `CCOC(=O)CN1C(=O)C(=C(c2ccc(OC)cc2)c2ccc(OC)cc2)c2ccccc21` [Compound 18] as the compound, how does the inhibition in vivo at 30 mg/kg read?
**A.** The inhibition in vivo at 30 mg/kg was 34.8%.

**Q.** With `COc1ccc(C(=C2C(=O)N(CC(=O)N(C)C)c3ccccc32)c2ccc(OC)cc2)cc1` [Compound 20] as the compound, how does the inhibition in vivo at 30 mg/kg read?
**A.** Its inhibition in vivo at 30 mg/kg is 7.2%.

**Q.** For `CCOC(=O)CCCCCN1C(=O)C(=C(c2ccc(OC)cc2)c2ccc(OC)cc2)c2ccccc21` [Compound 22], which inhibition in vivo at 30 mg/kg is on record?
**A.** Its inhibition in vivo at 30 mg/kg is 28%.

**Q.** For `COC(=O)c1ccc(CN2C(=O)C(=C(c3ccc(OC)cc3)c3ccc(OC)cc3)c3ccccc32)cc1` [Compound 24], which inhibition in vivo at 30 mg/kg is on record?
**A.** Its inhibition in vivo at 30 mg/kg is 35.1%.

**Q.** Which inhibition in vivo at 30 mg/kg does the source give for `COc1ccc(C(=C2C(=O)N(S(=O)(=O)c3ccc(C)cc3)c3ccccc32)c2ccc(OC)cc2)cc1` [Compound 25, 1-paratoluenesulfonyl-3-[bis(4-methoxyphenyl)methylene]oxindole] here?
**A.** The inhibition in vivo at 30 mg/kg was 7.6%.

**Q.** Which inhibition in vivo at 30 mg/kg does the source give for `COc1ccc(C(c2ccc(OC)cc2)C2C(=O)Nc3ccccc32)cc1` (stereo not shown) [Compound 27, 3-[bis(4-methoxyphenyl)methyl]oxindole] here?
**A.** The inhibition in vivo at 30 mg/kg was 19.7%.

**Q.** For `Cc1ccc(C(c2ccc(C)cc2)C2C(=O)Nc3ccccc32)cc1` (stereo not shown) [Compound 28], which inhibition in vivo at 30 mg/kg is on record?
**A.** The inhibition in vivo at 30 mg/kg was 28.4%.

**Q.** For `COc1ccc(C=C2C(=O)Nc3ccccc32)cc1` [Compound 31, 3-(4-methoxybenzylidene)-oxindole], which inhibition in vivo at 30 mg/kg is on record?
**A.** The inhibition in vivo at 30 mg/kg was 40%.

**Q.** Which inhibition in vivo at 30 mg/kg does the source give for `COc1cc(C=C2C(=O)Nc3ccccc32)cc(OC)c1O` [Compound 32] here?
**A.** The inhibition in vivo at 30 mg/kg was 34%.

**Q.** Which inhibition in vivo at 30 mg/kg does the source give for `COc1ccc(/C=C/C(=O)Nc2ccccc2C(=O)O)cc1OC` [a, Tranilast, reference compound] here?
**A.** Its inhibition in vivo at 30 mg/kg is 7.1%.

**Q.** For `CC(C)c1cc(C=C2C(=O)Nc3ccccc32)cc(C(C)C)c1O` [b, reference compound], which inhibition in vivo at 30 mg/kg is on record?
**A.** The inhibition in vivo at 30 mg/kg was -26%.

**Q.** For `CON1C(=O)C(=Cc2cc(C(C)(C)C)c(O)c(C(C)(C)C)c2)c2ccc(Cl)cc21` [c, reference compound], which inhibition in vivo at 30 mg/kg is on record?
**A.** Its inhibition in vivo at 30 mg/kg is -8.6%.

**Q.** Which inhibition in vivo at 30 mg/kg does the source give for `O=C1Nc2ccc(O)cc2C1=Cc1cc2ccccc2[nH]1` [d, reference compound] here?
**A.** Its inhibition in vivo at 30 mg/kg is -0.1%.

Same assay, conditions: Rattus norvegicus, 336 h, Dose 100 mg/kg, oral once a day, 14 days after denudation, read-out: Inhibition (%) of intimal hypertrophy (intima/media thickness ratio)

**Q.** For `COc1ccc(C(=C2C(=O)Nc3ccccc32)c2ccc(OC)cc2)cc1` [Compound 1, 3-[bis(4-methoxyphenyl)methylene]-oxindole], which inhibition in vivo at 100 mg/kg is on record?
**A.** The inhibition in vivo at 100 mg/kg was 46.6%.

**Q.** For `Cc1ccc(C(=C2C(=O)Nc3ccccc32)c2ccc(C)cc2)cc1` [Compound 2], which inhibition in vivo at 100 mg/kg is on record?
**A.** Its inhibition in vivo at 100 mg/kg is 42.3%.

**Q.** With `COc1ccc(/C=C/C(=O)Nc2ccccc2C(=O)O)cc1OC` [a, Tranilast, reference compound] as the compound, how does the inhibition in vivo at 100 mg/kg read?
**A.** The inhibition in vivo at 100 mg/kg was 18.1%.

Tested on: intimal hypertrophy
Assay: not given
Settings: background statement; cited from earlier work

**Q.** For `COc1ccc(/C=C/C(=O)Nc2ccccc2C(=O)O)cc1OC` [a, Tranilast, reference compound], which “activity as intimal hypertrophy inhibitor” value is on record?
**A.** Its value is “weak activity”.
